In US10774046B2, “Inhibitors for the treatment of cancer and related methods” (UNIVERSITY OF LOUISVILLE RESEARCH FOUNDATION, INC., priority 2017, dated 2020):

How the values were obtained:
human recombinant PFKFB4 = human recombinant PFKFB4 (Homo sapiens, UniProt Q16877); experiment: ADP-Glo kinase assay; type: biochemical
Description: The fructose-6-phosphate kinase activity of human recombinant PFKFB4 in the presence of DMSO±indicated 5MPN concentrations was assayed as previously described. The activity of 5MPN against 97 kinases was examined using a commercially available active-site dependent competition binding assay core service (KINOMEscanEDGE) that quantifies the capacity of test agents to compete with an immobilized, active-site directed ligand using a DNA-tagged kinase and immobilized ligand and compound. For example, enzyme inhibition was studied using an ADP-Glo assay. The effect of MPN-2 on the activity of recombinant human PFKFB4 enzyme was examined in an ADP-Glo assay (Promega), which measures ADP formed from a kinase reaction. ADP is converted into ATP, which is converted into light by a luciferase. PFKFB4 protein was exposed to MPN-2 at indicated concentrations in the presence of ATP and fructose-6-phosphate and following manufacturer's instructions, ADP-Glo and kinase detections reagents were added. The data are shown as the decrease in luminescence caused by MPN-2 relative to DMSO.
Method: The efficacy of Formula (VIII) in inhibition of the kinase activity of the PFKFB4 enzyme was examined by exposing recombinant human PFKFB4 protein to Formula (VIII) in the ADP-Glo kinase assay (Promega) which measures ADP formed through a kinase reaction. Briefly, recombinant protein, ATP, substrate and Formula (VIII) were incubated together for the kinase reaction followed by the addition of ADP-Glo reagent, used to terminate the kinase reaction. Lastly, a kinase detection reagent was added to convert the newly formed ADP to ATP which was measured by a luciferase reaction. Data are shown in FIG. 10 as the decrease in luminescence caused by Formula (VIII) relative to DMSO.
Method: The efficacy of FB4-32 and FB4-35 in inhibition of the kinase activity of the PFKFB4 enzyme was examined by exposing recombinant human PFKFB4 protein to FB4-32 and FB4-35 in the ADP-Glo kinase assay (Promega) which measures ADP formed through a kinase reaction. Briefly, recombinant protein, ATP, substrate and FB4-32 or FB4-35 were incubated together for the kinase reaction followed by the addition of ADP-Glo reagent to terminate the kinase reaction. Last, a kinase detection reagent was added to convert the newly formed ADP to ATP which was measured by a luciferase reaction. Data are shown as the decrease in luminescence caused by FB4-32 and FB4-35 relative to DMSO.

H460 cells = experiment: glycolysis assay (3H2O from 5-[3H]glucose); type: cell-based, human
Description: H460 cells were exposed to the indicated concentrations of MPN-2 and glycolysis production was examined. Cells growing in 6-well plates were incubated in 500 μl of complete medium containing 1 μCi of 5-[^3H]glucose per well for 60 min in 5% CO2 at 37° C. Media was collected, ^3H2O formed via glycolysis from the 5-[^3H]glucose measured and counts normalized as previously described. For example, the medium was then collected and centrifuged to pellet any suspended cells. To separate the ^3H2O formed via glycolysis from the 5-[^3H]glucose added to the medium, an evaporation technique in a sealed system was utilized. Briefly, 150 μl aliquots of medium were added to open tubes that were placed upright inside scintillation vials containing 1 ml of H2O. The scintillation vials were sealed, and the ^3H2O produced by glycolysis through enolase and released to the medium was allowed to equilibrate with the H2O in the outer vial for 48 h at 37° C. The amounts of ^3H2O that had diffused into the surrounding H2O was measured on a Tri-Carb 2910 liquid scintillation analyzer (Perkin Elmer) and compared with ^3H2O and 5-[^3H]glucose standards. Protein concentration was determined using the BCA assay and counts were normalized to protein concentration. All data are expressed as the mean±SD of three experiments. Statistical significance was assessed by the two-sample t test (independent variable).
Method: To examine glycolysis, H460 cells growing in 6-well plates were incubated in 500 μl of complete medium containing 1 μCi of 5-[^3H] glucose per well for 60 min in 5% CO2 at 37° C. The medium was then collected and centrifuged to pellet any suspended cells. To separate the ^3H2O formed via glycolysis from the 5-[^3H]glucose added to the medium, an evaporation technique in a sealed system was utilized. Briefly, 150 μl aliquots of medium were added to open tubes that were placed upright inside scintillation vials containing 1 ml of H2O. The scintillation vials were sealed, and the ^3H2O produced by glycolysis through enolase and released to the medium was allowed to equilibrate with the H2O in the outer vial for 48 h at 37° C. The amounts of ^3H2O that had diffused into the surrounding H2O was measured on a Tri-Carb 2910 liquid scintillation analyzer (Perkin Elmer) and compared with ^3H2O and 5-[^3H]glucose standards. Protein concentration was determined using the BCA assay and counts were normalized to protein concentration (previously described in CHESNEY et al. Oncotarget. 2014; 5(16):6670-6686.)

[1] = tested on: Lewis lung carcinoma (LLC) tumors; experiment: Lewis lung carcinoma tumor growth in syngeneic mice; type: in vivo, C57BL/6 mice
Description: For xenograft studies, exponentially growing LLC or H460 cells were detached, washed and resuspended in PBS. Female C57BL/6 mice (Jackson Labs) were injected with LLC cells (n=10/group, s.c., 1×10^6 cells) and female BALB/c athymic mice (Jackson Labs) with H460 cells (n=10/group, s.c, 5×10^6 cells). Tumor masses were determined in a blinded fashion with Vernier calipers using the formula: mass (mg)=(width, mm)^2×(length, mm)/2 as previously described. When tumor masses were 150-200 mg, mice were randomized to daily intraperitoneal DMSO or 5MPN at the indicated dose in 50 μL DMSO. Tumor measurements and body weights were followed daily. All data are expressed as the mean±SD of two experiments. Statistical significance was assessed by the two-sample t test (independent variable).
Method: C57BL/6 mice (Charles River) were implanted with 1×10^6 Lewis lung carcinoma cells subcutaneously and, after tumors developed, were followed by caliper measurements daily to quantify tumor mass using the formula: tumor mass=(length×width^2)/2. When tumors were ˜150-200 mg, mice were randomized to daily oral DMSO±Formula (VIII) (n=10/group) at 40 mg/kg in 50 μL DMSO and tumor growth followed×9 days. (* signifies statistical significance)

Chain of human recombinant PFKFB4 (Q16877 whole entry): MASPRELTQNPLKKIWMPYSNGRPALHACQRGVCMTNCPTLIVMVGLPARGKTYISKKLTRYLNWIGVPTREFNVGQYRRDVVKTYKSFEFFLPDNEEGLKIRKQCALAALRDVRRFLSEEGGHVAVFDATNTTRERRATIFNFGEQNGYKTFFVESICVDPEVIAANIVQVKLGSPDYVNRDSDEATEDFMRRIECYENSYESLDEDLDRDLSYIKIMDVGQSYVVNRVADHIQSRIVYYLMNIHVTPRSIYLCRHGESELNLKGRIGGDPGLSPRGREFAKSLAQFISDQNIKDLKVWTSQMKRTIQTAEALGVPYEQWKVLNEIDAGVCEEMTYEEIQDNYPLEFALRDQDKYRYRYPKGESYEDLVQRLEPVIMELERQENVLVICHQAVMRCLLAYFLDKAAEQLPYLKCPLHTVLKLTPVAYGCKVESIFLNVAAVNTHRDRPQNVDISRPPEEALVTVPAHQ

kinase activity of the PFKFB4 enzyme (luminescence relative to DMSO) (human recombinant PFKFB4) | Compound | intracellular glycolysis (H460 cells; H460, indicated concentrations of MPN-2, 48 hours) | tumor growth ([1]; intraperitoneal injection 10 mg/kg daily, eleven days) | glycolysis (H460 cells; H460, 10 μM 5MPN, 6-72 hours) | tumor growth ([1]; 5MPN 120 mg/kg oral daily, ten days) | body weight ([1]; LLC-bearing mice, 120 mg/kg oral daily) | established tumor growth ([1]; oral 40 mg/kg daily, 9 days)
inhibited | 5-[(8-methoxy-2-methylquinolin-1-ium-4-yl)amino]pentyl nitrate [MPN-2] | decreased | suppressed the growth | – | – | – | –
– | COc1cccc2c(NCCCCCO[N+](=O)[O-])ccnc12 [5MPN, 5-[(8-methoxyquinolin-4-yl)amino]pentyl nitrate] | – | – | reduced | suppressed the growth | without affecting body weight | –
inhibited | COc1cccc2c(NCCCCCNC(=O)C(F)(F)F)ccnc12 [Formula (VIII), 2,2,2-trifluoro-N-(5-((8-methoxyquinolin-4-yl)amino)pentyl)acetamide] | – | – | – | – | – | decreased established tumor growth
